From patent US6303577A, “Use of a peptide compound in the treatment of systemic lupus erythematosus” (Tecnogen S.C.p.A., priority 1998, dated 2001)

Assays:
MRL/Ipr mice [1] = experiment: Serum anti-DNA antibodies by ELISA in mouse model of Systemic Lupus Erythematosus; assay type: in vivo; details: 1 mg i.p. twice a week from 7 weeks of age
Description: (§1) In vivo studies on the activity of the peptide compounds of formula (I) were carried out by using an experimental animal model of human Systemic Lupus Erythematosus. MRL/Ipr, NZB/NZW or BXSB denote mouse strains that spontaneously develop an autoimmune syndrome having notable similarities to human Systemic Lupus Erythematosus. The MRL-Ipr/Ipr strain is homozigotic for Ipr gene. The lpr mutation causes functional defects in the Fas Ag. Fas belongs to the TNF receptor family and mediates apoptosis (Watanabe-Fukunaga, R. et al., "Nature", 356, 314, 1992; Itoh, N., et al., "Cell", 66, 233, 1991; Murphy, E. D., "Immunological defects in Laboratory Animals", 2, 143, 1981; Steinberg, A. D., "Semin. Immunol.", 6, 55, 1994). Autoimmune disease in MRL/Ipr mice is characterized by autoantibody production, vasculitis, arthritis, and glomerulonephritis that is the major cause of death (Theofilopoulos, A. N., et al., "Adv. Immunol.", 37, 269, 1985; Cohen, P. L., et al., "Annu. Rev. Immunol.", 9, 243, 1991).
(§2) At 7 weeks of age, mice were treated twice a week with 1 mg of D-PAM, L-PAM or placebo […] administered intraperitoneally. The treatment was stopped at 30 weeks of age. Mice were observed daily for clinical signs of disease and for mortality and were bled every 2 weeks for determination of anti-DNA antibody production, while urine protein levels were determined on samples taken twice a week.
Standard ELISA assay to measure the serum levels of anti-DNA antibodies was performed as follow. Microtiter plates (Costar, Cat. No 3590) were coated with a 10 μg/ml DNA (Sigma Cat. No D-8899) solution (100 μl/well) in 0.01 M phosphate buffer (pH 8.0) and incubated over night at 4° C. After washing the microtiter plates ten times with a 50 mM phosphate, 150 mM NaCl pH 7.2 buffer (PBS) containing 0.05% Tween (PBS-T), the wells were saturated with 200 μl of PBS-T containing fetal calf serum (1%) heat-inactivated 1 hour at 56° C. (PBS-T-FCS), and incubated for 2 hours at room temperature, to block the uncoated plastic surface. Plates were then washed again with PBS-T, and filled with samples (100 μl/well) previously diluted with PBS-T-FCS. After incubation for 2 hours at room temperature and subsequent washing, wells were filled with 100 μl of horseradish peroxidase labeled goat anti-mouse polyvalent immunoglobulins (IgG, IgA, IgM) (Sigma, Cat. No A-0412) solution diluted 1000 fold with PBS-T-FCS. The plates were then left to stand for 1 hour at room temperature, washed ten times and then filled with 150 μl of ophenylenediamine dihydrochloride (Sigma Cat. No P-6912) chromogenic substrate solution freshly prepared according to protocols from the manufacturer. The color was allowed to develop for 30' and the adsorbance at 450 nm were determined with an ELISA plate reader (Labsystems Multiskan Bichromatic).

MRL/Ipr mice [2] = experiment: Survival in mouse model of Systemic Lupus Erythematosus; assay type: in vivo; details: 1 mg i.p. twice a week from 7 weeks of age
Description: as §1, §2
Coincident with ameliorating the clinical signs of severe immune complex nephritis, a dramatic prolongation of survival was observed.

MRL/Ipr mice [3] = experiment: Histopathologic examination of renal tissue; assay type: in vivo, mouse; details: hematoxylin and eosin, light microscope
Description: as §1
as §2, with “The treatment was stopped at 30 weeks of age.” left out, “week. […]” for “week.”

Balb/c mice = details: mouse, in vivo
Description: The ability of the peptide compounds of formula (I) to evoke an antibody response has been evaluated by immunizing two groups of four Balb/c mice with 100 μg of D-PAM or L-PAM respectively by i.p. injection. After the first immunization, the same immunogen was administered for two subsequent boosts, blood samples were collected from each animal for monitoring antibody titers by an ELISA assay as follow.
Polystyrene microtiter plates (Falcon Cat. No 3912) were coated with a 50 μg/ml D-PAM and L-PAM conjugated to BSA (100 μl/well) in 0.1 M sodium carbonate buffer (pH 8.5) and incubated over night at 4° C. After washing the microtiter plates ten times with a 50 mM phosphate, 150 mM NaCI pH 7.2 buffer (PBS), the wells were saturated with 200 μl of PBS containing bovine serum albumin (BSA, Sigma Cat. No A-9418) for 1 hour at 37° C., to block the uncoated plastic surface. Plates were then washed again with PBS containing 0.05% Tween 20 (PBS-T), and filled with samples (100 μl/well) previously diluted with PBS-T containing 1% BSA (PBS-T-B). […] The color was allowed to develop for 30' and absorbances were read at 405 nm with an ELISA plate reader (Labsystems Multiskan Bichromatic). […]

MRL/Ipr mice [4] = experiment: Urine protein levels (dipstick) in mouse model of Systemic Lupus Erythematosus; assay type: in vivo; details: for Mice with proteinuria level >1 g/L (%): 1 mg i.p. twice a week from 7 weeks of age
Description: as §1, §2
Urine protein levels were determined by colorimetric analysis using dipsticks (Combur 7, Boehringer Mannheim, n. cat. 185515) according to protocols from the manufacturer (Wang et al., "Proc. Natl. Acad. Sci. USA", 93, 8563-8568, 1996).

in vitro = in vitro ADME, mouse; details: for remaining at 5 min / remaining at 20 min / remaining at 40 min / remaining at 1 h: mouse, serum
Description: The stability of the peptide compounds of formula (I) to proteolytic attack by proteases has been evaluated by High Performance Liquid Chromatography (HPLC).
Mouse sera were obtained by cutting a small section off tip of tail and collecting some blood drops. After collection, blood was incubated for 1 hour at 37° C. and then serum was removed from the clot by centrifugation at 1200 g for 20' at 4° C. Various amounts of peptide compounds of formula (I) were added to 50 μl of serum and the mixture was incubated at 37° C. for different periods of time. Afterwards, 2 μl of the reaction mixture were added to 50 μl of 0.1 M acetic acid in order to elute the peptide compound from serum immunoglobulins. Samples were then stored at -80° C. until use.
Analysis of samples was carried out on an Aquapore RP-8 column (30×2.1 mm I.D.), eluting the equilibrated column at a flow rate of 0.5 ml/min with a linear gradient of 0.1% trifluoracetic acid buffer containing increasing acetonitrile concentration from 5% to 60% in 35'. Elution was monitored by absorbance at 225 nm.

Structure (SMILES)	Ig Anti-DNA titer (O.D.) fold increase (MRL/Ipr mice [1]; time 8 weeks)	Ig Anti-DNA titer (O.D.) fold increase (MRL/Ipr mice [1]; time 10 weeks)	Ig Anti-DNA titer (O.D.) fold increase (MRL/Ipr mice [1]; time 14 weeks)	Ig Anti-DNA titer (O.D.) fold increase (MRL/Ipr mice [1]; time 16 weeks)	Ig Anti-DNA titer (O.D.) fold increase (MRL/Ipr mice [1]; time 18 weeks)	Survival rate (%) (MRL/Ipr mice [2]; time 15 weeks)	Survival rate (%) (MRL/Ipr mice [2]; time 20 weeks)	Survival rate (%) (MRL/Ipr mice [2]; time 25 weeks)	Survival rate (%) (MRL/Ipr mice [2]; time 30 weeks)	Glomerulonephropathic progression versus positive control group (in words) (MRL/Ipr mice [3])	Antibody titer (A 405) (Balb/c mice)	Onset of severe proteinuria versus untreated animals (in words) (MRL/Ipr mice [4]; 1 mg i.p. twice a week)	Mice with proteinuria level >1 g/L (%) (MRL/Ipr mice [4]; time 8 weeks)	Mice with proteinuria level >1 g/L (%) (MRL/Ipr mice [4]; time 13 weeks)	Mice with proteinuria level >1 g/L (%) (MRL/Ipr mice [4]; time 18 weeks)	Mice with proteinuria level >1 g/L (%) (MRL/Ipr mice [4]; time 23 weeks)	Mice with proteinuria level >1 g/L (%) (MRL/Ipr mice [4]; time 28 weeks)	remaining at 5 min (in vitro)	remaining at 20 min (in vitro)	remaining at 40 min (in vitro)	also measured
C[C@H](O)[C@@H](NC(=O)[C@H](N)CCCNC(=N)N)C(=O)N[C@H](Cc1ccc(O)cc1)C(=O)NCCCC[C@H](NC(=O)[C@@H](Cc1ccc(O)cc1)NC(=O)[C@H](NC(=O)[C@H](N)CCCNC(=N)N)[C@H](C)O)C(=O)NCCCC[C@H](NC(=O)[C@H](CCCCNC(=O)[C@@H](Cc1ccc(O)cc1)NC(=O)[C@H](NC(=O)[C@H](N)CCCNC(=N)N)[C@H](C)O)NC(=O)[C@@H](Cc1ccc(O)cc1)NC(=O)[C@H](NC(=O)[C@H](N)CCCNC(=N)N)[C@H](C)O)C(=O)NCC(=O)O [D-PAM, (H2 N-D-Arg-D-Thr-D-Tyr-CO)4 -(Lys)2 -Lys-Gly-OH]	1.8 fold increase	2.5 fold increase	3.5 fold increase	3.5 fold increase	4.3 fold increase	100%	100%	90%	80%	evident reduction in the glomerulonephropathic progression	0.663 A 405	marked delay in the onset of severe proteinuria	0%	0%	0%	20%	30%	83%	73%	68%	Time until which treated mice did not develop proteinuria (MRL/Ipr mice [4]; 1 mg i.p. twice a week): 20 weeks; Stability to proteolytic attack (in words) (in vitro): more stable to proteolytic attack than L-PAM; remaining at 1 h (in vitro): 63%
C[C@@H](O)[C@H](NC(=O)[C@@H](N)CCCNC(=N)N)C(=O)N[C@@H](Cc1ccc(O)cc1)C(=O)NCCCC[C@H](NC(=O)[C@H](Cc1ccc(O)cc1)NC(=O)[C@@H](NC(=O)[C@@H](N)CCCNC(=N)N)[C@@H](C)O)C(=O)NCCCC[C@H](NC(=O)[C@H](CCCCNC(=O)[C@H](Cc1ccc(O)cc1)NC(=O)[C@@H](NC(=O)[C@@H](N)CCCNC(=N)N)[C@@H](C)O)NC(=O)[C@H](Cc1ccc(O)cc1)NC(=O)[C@@H](NC(=O)[C@@H](N)CCCNC(=N)N)[C@@H](C)O)C(=O)NCC(=O)O [L-PAM, (H2 N-L-Arg-L-Thr-L-Tyr-CO)4 -(Lys)2 -Lys-Gly-OH]	1.8 fold increase	2.5 fold increase	3.6 fold increase	3.6 fold increase	4.5 fold increase	100%	90%	50%	40%	evident reduction in the glomerulonephropathic progression	0.462 A 405	marked delay in the onset of severe proteinuria	0%	0%	10%	50%	60%	57%	31%	19%	remaining at 1 h (in vitro): 12%
